Legend:
Somatostatin receptor [1] = assay: Inhibitory activity against Somatostatin receptor in rat cortex membrane using 125 I-Tyrs-octreotide as radioligand; assay type: cell membranes
Somatostatin receptor [2] = assay: Radioligand binding studies on rat cortex membranes using 125 I-Tyrs-octreotide as ligand was determined

Log Ki (Somatostatin receptor [1]): -4.73 | IC50 (Somatostatin receptor [2]): 23 µM
Compound: NCCCCCOCC1OC(OCCc2c[nH]c3ccccc23)C(OCc2ccccc2)C1OCc1ccccc1 (configuration not stated)
